# Patent US6395737B1, “Malonic acid derivatives, processes for their preparation, for their use and pharmaceutical compositions containing them” (Aventis Pharma Deutschland GmbH, priority 1999, dated 2002)
# pKi: −log10 of the molar value. Where a name gives a salt, the structure may show the parent alone.
# Biological target: factor Xa (Homo sapiens, UniProt P00742)
# Experiment: In vitro Factor Xa assay (Test 1a), chromogenic substrate S-2765
# Type: biochemical
# Set-up: purchased Enzyme Research Laboratories, Inc; South Bend, Ind
# Settings: Factor Xa inhibitory activity; Ki from IC50 corrected for substrate competition; 0.5 nM enzyme, 140 μM S-2765, 25° C.
# Description: The ability of a compound of formula I to inhibit factor Xa, thrombin, plasmin, elastase and trypsin may be assessed by determining the concentration of compound of formula I that inhibits enzyme activity by 50% (IC50). Purified enzymes are used in chromogenic assays. To determine the inhibition constant, the IC50 value is corrected for competition with substrate using the formula:
# Ki=IC50×(1/{1+((substrate concentration)/substrate Km)})
# where Km is the Michaelis-Menten-constant (Y.-C. Chen and W.H. Prusoff, Biochem. Pharmacol. 22: […] (1973), which is incorporated herein by reference).
# TBS-PEG buffer (50 mM Tris-Cl, pH 7.8, 200 mM NaCl, 0.05% (w/v) PEG-8000, 0.02% (w/v) NaN3) is used for this assay. The IC50 is determined by combining in appropriate wells of a Costar half-area microtiter plate 25 μl human factor Xa (Enzyme Research Laboratories, Inc.; South Bend, Ind.) in TBS-PEG; 40 μl 10% (v/v) DMSO in TBS-PEG (uninhibited control) or various concentrations of the compound to be tested diluted in 10% (v/v) DMSO in TBS-PEG; and substrate S-2765 (N-benzyloxycarbonyl-D-Arg-Gly-L-Arg-p-nitroanilide; Kabi Pharmacia, Inc.; Franklin Ohio) in TBS-PEG.
# The assays are performed by pre-incubating the compound of formula I plus enzyme for 10 min, then the assay is initiated by adding substrate to obtain a final volume of 100 μl. The initial velocity of chromogenic substrate hydrolysis is measured by the change in absorbance at 405 nm using a Bio-tek Instruments kinetic plate reader (Ceres UV900HDi) at 25° C. during the linear portion of the time course (usually 1.5 min after addition of substrate). The concentration of inhibitor that causes a 50% decrease in the rate of substrate hydrolysis is predicted by linear regression after plotting the relative rates of hydrolysis (compared to the uninhibited control) versus the log of the compound of formula I concentration. The enzyme concentration is 0.5 nM and substrate concentration is 140 μM.
# Chain of factor Xa (P00742 235-488 limits assumed): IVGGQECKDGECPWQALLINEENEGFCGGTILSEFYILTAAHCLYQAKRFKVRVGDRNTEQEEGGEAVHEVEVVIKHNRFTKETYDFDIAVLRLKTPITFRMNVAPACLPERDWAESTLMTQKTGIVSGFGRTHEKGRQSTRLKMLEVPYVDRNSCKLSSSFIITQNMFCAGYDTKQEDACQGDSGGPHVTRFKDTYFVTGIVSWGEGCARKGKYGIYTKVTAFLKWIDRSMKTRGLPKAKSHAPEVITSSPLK
# Chain of factor Xa (P00742 41-179 partner limits assumed): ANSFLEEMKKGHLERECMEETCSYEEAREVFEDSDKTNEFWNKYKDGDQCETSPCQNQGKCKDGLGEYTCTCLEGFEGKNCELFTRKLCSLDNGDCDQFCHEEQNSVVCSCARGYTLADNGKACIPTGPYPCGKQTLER
row,SMILES,pKi
1,"N=C(N)NCCC[C@H](NC(=O)[C@@H](NC(=O)C(Cc1ccc(C(=N)N)cc1)C(=O)N1CCOCC1)c1ccccc1)C(N)=O (mixture of isomers) [Example 23, 2-(S)-{2-(S)-[2-(R,S)-(4-Carbamimidoyl-benzyl)-3-morpholin-4-yl-3-oxo-propionyl-amino]-2-phenyl-acetylamino}-5-guanidino-pentanoic acid amide trifluoroacetic acid salt]",7.89
2,"CC(C)(C)[C@H](NC(=O)C(Cc1ccc(C(=N)N)cc1)C(=O)N1CCOCC1)C(=O)N[C@@H](CCCNC(=N)N)C(N)=O (mixture of isomers) [Example 40, 2-(S)-{2-(S)-[2-(R,S)-(4-Carbamimidoyl-benzyl)-3-morpholin-4-yl-3-oxo-propionyl-amino]-3,3-dimethyl-butyrylamino}-5-guanidino-pentanoic acid amide trifluoroacetic acid salt]",6.30
3,"N=C(N)NCCC[C@H](NC(=O)[C@H](Cc1ccccc1)NC(=O)C(Cc1ccc(C(=N)N)cc1)C(=O)N1CCOCC1)C(N)=O (mixture of isomers) [Example 43, 2-(S)-{2-(S)-[2-(R,S)-(4-Carbamimidoyl-benzyl)-3-morpholin-4-yl-3-oxo-propionyl-amino]-3-phenyl-propionylamino}-5-guanidino-pentanoic acid amide trisfluoroacetic acid salt]",6.72
4,"N=C(N)NCCCC(NC(=O)C(NC(=O)C(Cc1ccc(C(=N)N)cc1)C(=O)N1CCCCC1)C1CCCCC1)C(N)=O (single isomer, unassigned; less polar) [Example 27]",8.46
5,"N=C(N)NCCC[C@H](NC(=O)[C@@H](NC(=O)C(Cc1ccc(C(=N)N)cc1)C(=O)N1CCCC1C(=O)O)C1CCCCC1)C(N)=O (single isomer, unassigned; less polar) [Example 35]",7.08
6,"N=C(N)c1ccc(CNC(=O)[C@@H](NC(=O)C(Cc2ccc(C(=N)N)cc2)C(=O)NCc2ccccc2)C2CCCCC2)cc1 (single isomer, unassigned; less polar) [Example 101]",7.43
7,"CN(Cc1ccccc1)C(=O)[C@@H](Cc1ccc(C(=N)N)cc1)C(=O)N[C@H](C(=O)NCC1CCN(C(=N)N)CC1)C1CCCCC1 (single isomer, unassigned; less polar) [Example 112]",9.00
8,"N=C(N)NCCCC(NC(=O)C(NC(=O)C(Cc1ccc(C(=N)N)cc1)C(=O)N1CCCCC1)C1CCCCC1)C(N)=O (single isomer, unassigned; more polar) [Example 28]",5.70
9,"CCOC(=O)C(Cc1cccc2ccccc12)NC(=O)[C@@H](NC(=O)C(Cc1ccc(C(=N)N)cc1)C(=O)N(C)Cc1ccccc1)C1CCCCC1 (single isomer, unassigned; more polar) [Example 107]",5.56
10,"CCCC[C@H](NC(=O)C(Cc1ccc(C(=N)N)cc1)C(=O)N1CCOCC1)C(=O)N[C@@H](CCCNC(=N)N)C(N)=O (stereo partly drawn) [Example 16, 2-(S)-[2-(R,S)-(4-Carbamimidoyl-benzyl)-3-morpholin-4-yl-3-oxo-propionyl-amino]-hexanoic acid(1-(S)-carbamoyl-4-guanidino-butyl)-amide trifluoroacetic acid salt]",7.59
11,"CN(C)C(=O)C(Cc1ccc(C(=N)N)cc1)C(=O)N[C@H](C(=O)NCc1cccc(CN)c1)C1CCCCC1 (stereo partly drawn) [Example 63, N-[((S)-3-Aminomethyl-benzylcarbamoyl)-cyclohexyl-methyl]-2-(R,S)-(4-carbamimidoyl-benzyl)-N′,N′-dimethyl-malonamide trifluoroacetic acid salt]",5.63
12,"CC(=O)NCc1cccc(CNC(=O)[C@@H](NC(=O)C(Cc2ccc(C(=N)N)cc2)C(=O)N(C)C)C2CCCCC2)c1 (stereo partly drawn) [Example 67, N-{[(S)-3-(Acetylamino-methyl)-benzylcarbamoyl]-cyclohexyl-methyl}-2-(R,S)-(4-carbamimidoyl-benzyl)-N′,N′-dimethyl-malonamide trifluoroacetic acid salt]",6.59

# The next lines start with the values.
row,pKi,SMILES
1,8.22,"CN(C)C(=O)C(Cc1ccc(C(=N)N)cc1)C(=O)N[C@H](C(=O)NCc1ccc(C(=N)N)cc1)C1CCCCC1 (mixture of isomers) [Example 4, 2-(R,S)-(4-Carbamimidoyl-benzyl)-N-[(4-carbamimidoyl-benzylcarbamoyl)-(S)-cyclohexyl-methyl]-N′,N′-dimethyl-malonamide Hydrochloric Acid Salt]"
2,8.21,"N=C(N)NCCC[C@H](NC(=O)[C@@H](NC(=O)C(Cc1ccc(C(=N)N)cc1)C(=O)N1CCOCC1)C1CCCCC1)C(N)=O (mixture of isomers) [Example 41, 2-(S)-{2-(S)-[2-(R,S)-(4-Carbamimidoyl-benzyl)-3-morpholin-4-yl-3-oxo-propionyl-amino]-2-cyclohexyl-acetylamino}-5-guanidino-pentanoic acid amide trifluoroacetic acid salt]"
3,7.92,"CN(C)C(=O)C(Cc1ccc(C(=N)N)cc1)C(=O)N[C@H](C(=O)N[C@@H](CCCNC(=N)N)C(=O)N1CCN(S(=O)(=O)c2ccc3ccc(Cl)cc3c2)CC1)C1CCCCC1 (mixture of isomers) [Example 45, 2-(R,S)-(4-Carbamimidoyl-benzyl)-N-({1-(S)-[4-(7-chloro-naphthalene-2-sulfonyl)-piperazine-1-carbonyl]-4-guanidino-butylcarbamoyl}-(S)-cyclohexyl-methyl)-N′,N′dimethyl-malonamide hydrochloric acid salt]"
4,6.34,"CN(C)C(=O)C(Cc1ccc(C(=N)N)cc1)C(=O)N[C@H](C(=O)NCC1CCNCC1)C1CCCCC1 (mixture of isomers) [Example 47, 2-(R,S)-(4-Carbamimidoyl-benzyl)-N-{(S)-cyclohexyl-[(piperidin-4-ylmethyl)-carbamoyl]-methyl}-N′,N′-dimethyl-malonamide hydrochloric acid salt]"
5,5.28,"CN(C)C(=O)C(Cc1ccc(C(=N)N)cc1)C(=O)N[C@H](C(=O)NCCc1ccc(Cl)c(Cl)c1)C1CCCCC1 (mixture of isomers) [Example 59, 2-(R,S)-(4-Carbamimidoyl-benzyl)-N-{(S)-cyclohexyl-[2-(3,4-dichloro-phenyl)-ethylcarbamoyl]-methyl}-N′,N′-dimethyl-malonamide acetic acid salt]"
6,6.77,"CN(C)C(=O)C(Cc1ccc(C(=N)N)cc1)C(=O)N[C@H](C(=O)NC(Cc1ccc(C(=N)N)cc1)C(N)=O)C1CCCCC1 (mixture of isomers) [Example 87, 2-(R,S)-(4-Carbamimidoyl-benzyl)-N-{(S)-[2-(4-carbamimidoyl-phenyl)-1-carbamoyl-ethylcarbamoyl]-cyclohexyl-methyl}N′,N′-dimethyl-malonamide acetic acid salt]"
7,7.27,"CN(C)C(=O)C(Cc1ccc(C(=N)N)cc1)C(=O)N[C@H](C(=O)NCCCCNC(=N)N)C1CCCCC1 (mixture of isomers) [Example 88, 2-(R,S)-(4-Carbamimidoyl-benzyl)-N-[(S)-cyclohexyl-(4-guanidino-butyl-carbamoyl)-methyl]-N′,N′-dimethyl-malonamide sulfuric acid salt]"
8,6.02,"CN(C)C(=O)C(Cc1ccc(C(=N)N)cc1)C(=O)N[C@H](C(=O)NC(C(=O)N1CCCC1)c1ccc(NC(=N)N)cc1)C1CCCCC1 (mixture of isomers) [Example 96, 2-(R,S)-(4-Carbamimidoyl-benzyl)-N-{(S)-cyclohexyl-[1-(4-guanidino-phenyl)-2-oxo-2-pyrrolidin-1-yl-ethylcarbamoyl]-methyl}-N′,N′-dimethyl-malonamide hydrochloric acid salt]"
9,7.46,"CCC(=N)N1CCC(CNC(=O)C(NC(=O)C(Cc2ccc(C(=N)N)cc2)C(=O)N(C)Cc2ccccc2)C2CCCCC2)CC1 (single isomer, unassigned; less polar) [Example 126]"
10,8.22,"CCC(=N)N1CCC(CNC(=O)C(NC(=O)C(Cc2ccc(C(=N)N)cc2)C(=O)N(C)Cc2ccccc2)C2CCCCC2)CC1 (single isomer, unassigned; more polar) [Example 125]"
11,6.11,"CN(C)C(=O)C(Cc1ccc(C(=N)N)cc1)C(=O)NC(C(=O)NCc1cccc(C(N)=O)c1)C1CCCCC1 [Example 69, 2-(R,S)-(4-Carbamimidoyl-benzyl)-N-[((S)-3-carbamoyl-benzylcarbamoyl)-cyclohexyl-methyl]-N′,N′-dimethyl-malonamide hydrochloric acid salt]"
12,8.52,"CN(C)C(=O)[C@@H](Cc1ccc(C(=N)N)cc1)C(=O)N[C@H](C(=O)NCC1CCN(C(=N)N)CC1)C1CCCCC1 [Example 113, 2-(S)-(4-Carbamimidoyl-benzyl)-N-{(S)-[(1-carbamimidoyl-piperidin-4-ylmethyl)-carbamoyl]-cyclohexyl-methyl}-N′,N′-dimethyl-malonamide hydrochloric acid salt, less polar diastereomer]"
